# Measurements reported in PMC3720735 (PLoS ONE, 2013).
# Assays:
# α7-nACh receptor = target: T1, α7-nACh receptor (Rattus norvegicus, UniProt Q05941); format: cell-based
# T1 construct: gene Chrna7
# [1] = target: T2, α7-nicotinic acetylcholine receptor (Homo sapiens, UniProt P36544); assay: two-electrode voltage clamp of ACh currents in Xenopus oocytes expressing the human receptor; format: cell-based
# T2 construct: gene CHRNA7
# T2 sequence (P36544 23-502): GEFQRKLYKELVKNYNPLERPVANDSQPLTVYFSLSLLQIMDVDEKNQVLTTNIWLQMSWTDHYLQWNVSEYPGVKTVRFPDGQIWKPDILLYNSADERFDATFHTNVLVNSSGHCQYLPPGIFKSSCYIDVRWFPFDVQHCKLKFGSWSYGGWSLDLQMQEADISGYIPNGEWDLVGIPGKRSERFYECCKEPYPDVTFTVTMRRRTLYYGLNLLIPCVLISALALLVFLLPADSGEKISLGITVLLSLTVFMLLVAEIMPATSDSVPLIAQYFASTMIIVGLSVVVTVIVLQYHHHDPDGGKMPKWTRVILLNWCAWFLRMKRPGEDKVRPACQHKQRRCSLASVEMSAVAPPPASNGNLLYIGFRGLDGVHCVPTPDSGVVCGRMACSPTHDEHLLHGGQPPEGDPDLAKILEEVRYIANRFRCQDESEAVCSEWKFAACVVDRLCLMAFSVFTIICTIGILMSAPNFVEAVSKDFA
# T1 sequence (Q05941 23-502): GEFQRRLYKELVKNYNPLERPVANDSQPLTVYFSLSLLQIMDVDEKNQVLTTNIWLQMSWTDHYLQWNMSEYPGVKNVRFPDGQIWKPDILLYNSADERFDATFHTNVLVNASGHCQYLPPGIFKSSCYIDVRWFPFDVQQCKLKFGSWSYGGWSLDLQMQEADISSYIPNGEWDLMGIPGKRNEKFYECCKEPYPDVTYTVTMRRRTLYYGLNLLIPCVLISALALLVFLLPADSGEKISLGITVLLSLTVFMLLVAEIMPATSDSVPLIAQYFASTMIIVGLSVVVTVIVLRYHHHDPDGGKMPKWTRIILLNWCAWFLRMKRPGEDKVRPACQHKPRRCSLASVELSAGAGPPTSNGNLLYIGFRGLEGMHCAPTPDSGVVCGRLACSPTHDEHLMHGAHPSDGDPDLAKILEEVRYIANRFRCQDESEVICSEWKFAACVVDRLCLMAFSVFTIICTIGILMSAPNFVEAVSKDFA
SMILES,"GCaMP5G Ca2+ imaging in PC12 cells (endogenous receptor), 10 μM, blocked by α-bu (α7-nACh receptor)",IC50 [1] [µM]
O=C(N[C@H]1CN2CCC1CC2)c1ccc(Cl)cc1 [PNU282987],activation of the α7-nACh receptor with nicotine or the selective α7-agonist PNU282987 (PNU) was associated with a significant increase,
CC1CCC(C(C)C)C(O)C1 (racemic) [menthol],,32.6 ± 2.3
